Results on two molecules are retold here after patent publication US11958842B2, “Substituted phenazines and methods of treating cancer and bacterial diseases” (Adjutec Pharma AS, priority 2016, dated 2024).

≈ marks a conversion by molar mass, not a printed value. Read-outs that look alike come from different tables or passages of the source. Marks after values point to notes of the source that are not given here.

One data set relates to hepG2. Kind of data set: Cytotoxicity (Example 73, Table 2). The class given is cell-based. Particulars: Homo sapiens; hepG2, 24 hours of incubation; read-out: EC50 (μM) hepG2.
The conditions of data set [1]: all solvents; background statement; cited from earlier work.
A short description of data set [2]: Parallel artificial membrane permeability assay (PAMPA). Particulars: PAMPA, 50 μM in PBS, room temperature, five hours. A general note: In PAMPA a lipid-coated filter parts donor from acceptor wells.
For another data set, the system named is IPC-81 rat AML cells. Kind of data set: Anti-AML activity, WST-1 viability (Example 72). Format: cell-based. Particulars: IPC81, 24 h. The method in brief: (§1)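 Rat IPC-81 cells in DMEM with 10% horse serum and Molm13 cells in RPMI with 10% FBS, seeded at 150 000 cells/ml with compound dilution series. After 22 h exposure, WST-1 added for a further 2 h; absorbance read at 450 nm (620 nm reference) as viability.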

A further data set deals with Molm13 cells. Kind of data set: Anti-AML activity, WST-1 viability (Example 72). Format: cell-based. Particulars: Homo sapiens, Molm 13 cells, WST-1. The method in brief:
as §1

For data set [3], the system named is normal rat kidney epithelial (NRK) cells. Kind of data set: Cytotoxicity, WST-1 and nuclear morphology (Example 73). Particulars: Rattus norvegicus. Format: cell-based. In short, it runs like this:
(§2)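 MOLM-13 (RPMI/FBS), NRK and H9c2 (DMEM/10% FBS) cells under 2% or 20% O2 at 37° C were exposed to analogues for 24 h (≤1% DMSO). Viability was read by WST-1, and cell death by Hoechst 33342 nuclear morphology; EC50 came from four-parameter regression.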
In general terms: Tetrazolium dyes change colour on reduction, which living cells bring about.

Data set [4] relates to human acute myeloid leukemia cell line MOLM-13. The description is as above. Format: cell-based. Particulars: Homo sapiens. In short, it runs like this:
as §2

The test system of data set [5] is rat cardiomyoblast (H9c2) cells. Described as above. The class given is cell-based. The following applies: Rattus norvegicus; H9c2, 19% O2, 24 hours of incubation; read-out: EC50 (μM) H9c2 19% O2. The method in brief: as §2
A further data set concerns P. aeruginosa/VIM-2. Description: Microbroth dilution MIC. Particulars: Pseudomonas aeruginosa; S3 P. aeruginosa/VIM-2; substance alone; read-out: MIC alone. Format: cell-based. As for the experimental part: (§3) Day 1: • Plate bacterial strain(s) on appropriate media: • Gram-negative bacteria with ESBLs or carbapenemases: green agar plates with 100 mg/L ampicillin • Gram-negative bacteria without β-lactamases: green agar plates • Gram-positive bacteria (Staphylococci and Enterococci): blood agar plates • Incubate o.n. at 37° C.
(§4) Prepare the Bacterial Inoculum: • Prepare a 0.5 McFarland suspension of bacteria in 0.85% NaCl. (Should be used within 15 min of preparation). • Dilute the 0.5 McFarland suspension 1:100 into MH broth.
(§5) Check the inoculum by diluting the prepared bacterial suspension 1:100 (10 μl bacterial suspension+990 μl 0.85% NaCl). Plate 10 μl of the dilution on MH agar plates (×2). Incubate o.n. at 37° C., count the colonies and calculate the final CFU/ml inoculum in the plate by multiplying the average number of colonies with 10000 and divide by 2. The final inoculum should be between 3-7×10^5 CFU/ml. • Add 50 μl of the prepared bacterial suspension to each well in the microtiter plate except negative growth control.
(§6) Preparation of Compounds/Antibiotics • Calculate the desired concentration-range and volume of the compounds/antibiotics in the assay. For antibiotics this will depend on the MIC to meropenem of the bacterial strains to be tested. Dilute the stock solution in MH broth. Make subsequent 2-fold dilutions in MH broth of the desired concentrations if a concentration range is to be tested (remember the extra dilution factor in the assay plate). Always include extra volume for pipetting. Take into consideration stock solutions that are made in buffers that have an effect on bacterial growth (e.g. DMSO).
(§7) This experimental design was used for the results in Tables 4 and 5 below. In Table 4, inhibitor concentration dependency on the MIC of meropenem was studied.
In general terms: In broth dilution the organism is exposed to a series of concentrations in liquid medium.

In a further data set the test system is P. aeruginosa (16H5). Kind of data set: Microbroth dilution MIC. The class given is cell-based. The following applies: Pseudomonas aeruginosa; S1 P. aeruginosa (16H5), lacking metallo-β-lactamase; substance alone. As for the experimental part: as §3, §4, §5, §6, §7
For the next data set, the system named is A.baumannii/OXA-23. Kind of data set: Microbroth dilution MIC. The class given is cell-based. The following applies: Acinetobacter baumannii; S7 A.baumannii/OXA-23; substance alone. Here is the method: as §3, §4, §5, §6, §7
Another data set has as its system K. pneumoniae/KPC-2. Description: Microbroth dilution MIC. Format: cell-based. The following applies: Klebsiella pneumoniae; S6 K. pneumoniae/KPC-2; substance alone. Here is the method: as §3, §4, §5, §6, §7
The test system of another data set is E. coli/OXA-48. Kind of data set: Microbroth dilution MIC. Format: cell-based. The following applies: Escherichia coli, read-out: MIC alone. As for the experimental part: as §3, §4, §5, §6, §7
A further data set relates to K. pneumoniae (17A2). Kind of data set: Microbroth dilution MIC. The class given is cell-based. Particulars: Klebsiella pneumoniae; S2 K. pneumoniae (17A2), lacking metallo-β-lactamase; substance alone. Here is the method:
as §3, §4, §5, §6, §7

A further data set concerns K. pneumoniae/NDM-1. Description: Microbroth dilution MIC. Format: cell-based. The following applies: Klebsiella pneumoniae; S4 K. pneumoniae/NDM-1; substance alone. Here is the method: as §3, §4, §5, §6, §7

The EC50 is the concentration giving half of the maximal effect. In general, IC50 refers to the point on the concentration scale where inhibition reaches its midpoint. On to `[O-][n+]1c2cccc(O)c2[n+]([O-])c2cccc(O)c21` [Example 1c, 1,6-dihydroxyphenazine 5,10-dioxide, reference compound], for which the concentration for a half-maximal effect (EC50) in the data set with hepG2 was over 250 µM; in [3] (2% O2, 24 hours of incubation, read-out: EC50 (μM) NRK 2% O2) it was over 50 µM; in data set [3] (19% O2, 24 hours of incubation, read-out: EC50 (μM) NRK 19% O2), over 50 µM; in data set [4] (MOLM-13, 2% O2, 24 hours of incubation, read-out: EC50 (μM) MOLM-13 2% O2) it was 0.79 ± 0.1 µM; in data set [4] (MOLM-13, 19% O2, 24 hours of incubation, read-out: EC50 (μM) MOLM-13 19% O2), 2 ± 0.07 µM; in data set [5], over 50 µM. The solubility result in data set [1] is “practically insoluble in all solvents”. Also, the LogPeff in data set [2] is listed as −5.46*. Also, the IC50 is 0.51 µM in the data set on IPC-81 rat AML cells (read-out: IPC-81 IC50 2% O2); 1.3 µM in the data set on IPC-81 rat AML cells (read-out: IPC-81 IC50 20% O2); 0.27 µM with Molm13 cells (2% O2, 24 h of incubation, read-out: Molm 13 IC50 2% O2); 0.3 µM in the data set with Molm13 cells (20% O2, 24 h of incubation, read-out: Molm 13 IC50 20% O2).
Broadly, the MIC is the lowest concentration found to suppress growth. For `C[C@@H](O)[C@H]1C(=O)N2C(C(=O)O)=C(S[C@@H]3CN[C@H](C(=O)N(C)C)C3)[C@H](C)[C@H]12` [MEM, meropenem, reference compound], the MIC was 32 µg/mL (≈ 83.4 µM) in the data set on P. aeruginosa/VIM-2; over 64 µg/mL in the data set on P. aeruginosa (16H5); over 64 µg/mL in the data set on A.baumannii/OXA-23; over 64 µg/mL against K. pneumoniae/KPC-2; 1 µg/mL (≈ 2.61 µM) in the data set with E. coli/OXA-48; 8 µg/mL (≈ 20.9 µM) in the data set with K. pneumoniae (17A2). Moreover, the minimum inhibitory concentration (MIC) against K. pneumoniae/NDM-1 came to 64 µg/mL (≈ 167 µM).
